Experiment [1] deals with Mouse fibroblasts L 929. Kind of experiment: Growth inhibition in cell culture, mouse fibroblasts L929. The format is cell-based. The protocol:
(§1) The epothilones according to the invention were tested with cell cultures (Table 2) and for promotion of polymerization (Table 3).

The subject of experiment [2] is HL-60 (leukaemia). Kind of experiment: Growth inhibition in cell culture, HL-60. The format is cell-based, human. The protocol: as §1
Experiment [3] concerns K-562 (leukaemia). Kind of experiment: Growth inhibition in cell culture, K-562. The class given is cell-based, human. The protocol: as §1
Experiment [4] deals with U-937 (lymphoma). Kind of experiment: Growth inhibition in cell culture, U-937. The class given is cell-based, human. The protocol: as §1
The subject of experiment [5] is KB-3.1 (carcinoma of the cervix). The experiment is described as follows: Growth inhibition in cell culture, KB-3.1. The format is cell-based, human. The protocol: as §1
Experiment [6] relates to KB-VI (carcinoma of the cervix multires). Kind of experiment: Growth inhibition in cell culture, KB-VI. The format is cell-based, human. The protocol:
as §1

Experiment [7] concerns A-498 (carcinoma of the kidney). The experiment is described as follows: Growth inhibition in cell culture, A-498. The class given is cell-based, human. The protocol:
as §1

The subject of experiment [8] is A-549 (carcinoma of the lung). Kind of experiment: Growth inhibition in cell culture, A-549. The format is cell-based, human. The protocol: as §1
Experiment [9] addresses T1, purified tubulin from pigs' brain (Sus scrofa, UniProt P02554).
T1 construct: purified tubulin from pigs' brain; from tissue; host or cells: pig brain
The class given is biochemical, pig. As to conditions: 0.9 mg of tubulin/ml, 1 μM sample concentration; for Time up to the half-maximal polymerization, Agent [%] (relative activity in % of the control): control = 100, lowest values indicate the best activity; for Time up to the half-maximal polymerization of the control, Agent [s]: average of experiments w-z, control 190 s; for Time up to the half-maximal polymerization of the control, measurement w: independent experiment w; for Time up to the half-maximal polymerization of the control, measurement x: independent experiment x; for Time up to the half-maximal polymerization of the control, measurement y: independent experiment y; for Time up to the half-maximal polymerization of the control, measurement z: independent experiment z. The protocol:
as §1
The polymerization test is an in vitro test using purified tubulin from pigs' brain. Evaluation is carried out photometrically.

Where [10] appears, read: KB-3.1 (carcinoma of the cervix).
The mark [11] stands for this setting: KB-VI (carcinoma of the cervix multires).
The mark [12] stands for this setting: A-498 (carcinoma of the kidney).

≈ marks a conversion by molar mass, not a printed value. Where two headings read alike, the source gives them in different places.

T1 sequence (P02554 whole entry): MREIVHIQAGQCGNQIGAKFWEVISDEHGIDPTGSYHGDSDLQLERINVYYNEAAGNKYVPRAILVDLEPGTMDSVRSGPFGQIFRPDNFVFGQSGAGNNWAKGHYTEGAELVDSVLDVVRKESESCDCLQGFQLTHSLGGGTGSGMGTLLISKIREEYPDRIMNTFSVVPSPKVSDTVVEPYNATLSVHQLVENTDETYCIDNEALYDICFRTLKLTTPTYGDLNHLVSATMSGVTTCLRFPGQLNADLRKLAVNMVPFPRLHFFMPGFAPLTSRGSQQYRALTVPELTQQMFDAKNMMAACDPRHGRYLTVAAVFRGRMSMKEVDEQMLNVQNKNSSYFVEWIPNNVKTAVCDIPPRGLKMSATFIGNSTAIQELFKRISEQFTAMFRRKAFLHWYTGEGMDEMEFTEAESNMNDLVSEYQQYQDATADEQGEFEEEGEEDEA
T1 sequence (P02550 whole entry partner): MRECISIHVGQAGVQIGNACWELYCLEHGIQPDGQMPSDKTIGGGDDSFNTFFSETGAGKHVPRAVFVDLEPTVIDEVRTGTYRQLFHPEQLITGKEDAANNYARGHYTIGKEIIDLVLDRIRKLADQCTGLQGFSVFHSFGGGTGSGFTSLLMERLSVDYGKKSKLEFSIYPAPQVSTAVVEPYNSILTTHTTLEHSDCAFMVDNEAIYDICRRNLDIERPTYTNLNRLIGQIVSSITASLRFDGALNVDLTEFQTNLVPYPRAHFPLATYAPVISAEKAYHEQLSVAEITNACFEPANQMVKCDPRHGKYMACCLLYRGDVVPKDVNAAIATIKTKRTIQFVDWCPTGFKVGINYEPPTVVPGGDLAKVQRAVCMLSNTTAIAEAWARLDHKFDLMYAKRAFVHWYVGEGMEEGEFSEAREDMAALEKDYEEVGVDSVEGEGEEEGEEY

In the case of `C/C(=C\c1csc(CO)n1)[C@@H]1C[C@@H]2O[C@@H]2CCC[C@H](C)[C@H](O)[C@@H](C)C(=O)C(C)(C)[C@@H](O)CC(=O)O1` [Epothilone E], the concentration for half-maximal inhibition (IC50) in experiment [1] was 20 ng/mL (≈ 39.2 nM); in [5], 5 ng/mL (≈ 9.81 nM). For the same compound, the “IC-50” value in experiment [1] worked out at 20 ng/mL; in experiment [2] it was 1 ng/mL; in [3] it was 2 ng/mL; in [4], 1 ng/mL; in [5] it was 5 ng/mL; in experiment [6], 5 ng/mL. Further, the “IC-50” value came out at 20 ng/mL in experiment [7] and 3 ng/mL in [8].
With `C/C(=C\c1csc(C)n1)[C@@H]1C/C=C\CCC[C@H](C)[C@H](O)[C@@H](C)C(=O)C(C)(C)[C@@H](O)CC(=O)O1` [Epothilone C], the “IC-50” value in experiment [1] (Mouse fibroblasts L 929) was 100 ng/mL; in experiment [2] (HL-60 (leukaemia)), 10 ng/mL; in experiment [3] (K-562 (leukaemia)), 20 ng/mL; in experiment [4] (U-937 (lymphoma)), 10 ng/mL; in experiment [5] (setting [10]), 20 ng/mL; in experiment [6] (setting [11]), 15 ng/mL. In addition, the “IC-50” value in experiment [7] (setting [12]) amounted to 150 ng/mL; in [8] (A-549 (carcinoma of the lung)), 30 ng/mL. Also, in experiment [9], the “Time up to the half-maximal polymerization, Agent [%] (relative activity in % of the control)” value was 49%. In [9], the “Time up to the half-maximal polymerization of the control, Agent [s]” value (“Time up … [s]” below) was 94 s. Besides, the “Time up to the half-maximal polymerization of the control, measurement w” value (shortened to “Time up … measurement w”) in experiment [9] turned out to be 125 s. In addition, the “Time up to the half-maximal polymerization of the control, measurement x” value (shortened to “Time up … measurement x”) in [9] is listed as 76 s. Also, the “Time up to the half-maximal polymerization of the control, measurement y” value (“Time up … measurement y” for short) in experiment [9] came to 95 s. In [9], the “Time up to the half-maximal polymerization of the control, measurement z” value (“Time up … measurement z” below) came to 80 s.
For the compound `C/C(=C\c1csc(C)n1)[C@@H]1C[C@@H]2O[C@@H]2CCC[C@H](C)[C@H](O)[C@@H](C)C(=O)C(C)(C)[C@@H](O)CC(=O)O1` [Epothilone A, epothilone A, reference compound], the “IC-50” value in experiment [1] (Mouse fibroblasts L 929) stood at 4 ng/mL; in experiment [2] (HL-60 (leukaemia)), 0.2 ng/mL; in experiment [3] (K-562 (leukaemia)), 0.3 ng/mL; in [4] (U-937 (lymphoma)), 0.2 ng/mL; in experiment [5] (setting [10]) it was 1 ng/mL; in experiment [6] (setting [11]), 0.3 ng/mL. The “IC-50” value in [8] (A-549 (carcinoma of the lung)) is 0.7 ng/mL. Further, the “IC50” value turned out to be 4 ng/mL (≈ 8.1 nM) in experiment [1] (Mouse fibroblasts, L929, concentration which reduces the growth by 50%) and 1 ng/mL (≈ 2.03 nM) in [5] (HeLa KB-3.1 (human), concentration which reduces the growth by 50%). Besides, in experiment [9], the “Time up to the half-maximal polymerization, Agent [%] (relative activity in % of the control)” value was determined as 39%. The “Time up … [s]” value in [9] came out at 74 s. For the same compound, the “Time up … measurement w” value in experiment [9] is recorded as 95 s. In addition, the “Time up … measurement x” value in experiment [9] was found to be 60 s. In addition, the “Time up … measurement y” value in experiment [9] was 70 s. Further, the “Time up … measurement z” value in experiment [9] was found to be 70 s.
Turning to `C/C(=C\c1csc(C)n1)[C@@H]1C[C@@H]2O[C@]2(C)CCC[C@H](C)[C@H](O)[C@@H](C)C(=O)C(C)(C)[C@@H](O)CC(=O)O1` [Epothilone B, epothilone B, reference compound], the “IC-50” value in experiment [1] (Mouse fibroblasts L 929) turned out to be 1 ng/mL; in experiment [2] (HL-60 (leukaemia)), 0.2 ng/mL; in [3] (K-562 (leukaemia)), 0.3 ng/mL; in [4] (U-937 (lymphoma)) it was 0.2 ng/mL; in [5] (setting [10]) it was 0.6 ng/mL; in experiment [6] (setting [11]) it was 0.3 ng/mL. For the same compound, the figures for the “IC-50” value in experiment [7] (setting [12]) and in experiment [8] (A-549 (carcinoma of the lung)) were 1.5 ng/mL and 0.1 ng/mL, respectively. The “Time up to the half-maximal polymerization, Agent [%] (relative activity in % of the control)” value in experiment [9] is given as 14%. The “Time up … [s]” value in experiment [9] stood at 26 s. In addition, the “Time up … measurement x” value in experiment [9] worked out at 23 s. Also, the “Time up … measurement y” value in [9] turned out to be 25 s. Further, the “Time up … measurement z” value in [9] is given as 30 s.
For the compound `C/C1=C/C[C@@H](/C(C)=C/c2csc(C)n2)OC(=O)C[C@H](O)C(C)(C)C(=O)[C@H](C)[C@@H](O)[C@@H](C)CCC1` [Epothilone D], the “IC-50” value in experiment [1] (Mouse fibroblasts L 929) turned out to be 20 ng/mL; in [2] (HL-60 (leukaemia)) it was 3 ng/mL; in experiment [3] (K-562 (leukaemia)), 10 ng/mL; in experiment [4] (U-937 (lymphoma)), 3 ng/mL; in [5] (setting [10]), 12 ng/mL; in experiment [6] (setting [11]), 3 ng/mL. Also, the “IC-50” value in experiment [7] (setting [12]) was determined as 20 ng/mL; in experiment [8] (A-549 (carcinoma of the lung)) it was 10 ng/mL. For the same compound, the “Time up to the half-maximal polymerization, Agent [%] (relative activity in % of the control)” value in [9] is recorded as 56%. The “Time up … [s]” value in experiment [9] was determined as 106 s. Besides, the “Time up … measurement w” value in experiment [9] was found to be 125 s. The “Time up … measurement x” value in experiment [9] stood at 73 s. In addition, in experiment [9], the “Time up … measurement y” value is 120 s.
Take `C/C(=C\c1csc(CO)n1)[C@@H]1C[C@@H]2O[C@]2(C)CCC[C@H](C)[C@H](O)[C@@H](C)C(=O)C(C)(C)[C@@H](O)CC(=O)O1` [Epothilone F]: the “IC-50” value was determined as 1.5 ng/mL in experiment [1]; 0.3 ng/mL in experiment [2]; 0.5 ng/mL in experiment [3]; 0.2 ng/mL in experiment [4]; 0.5 ng/mL in experiment [5]; 0.6 ng/mL in [6]. In addition, the “IC-50” value was determined as 3 ng/mL in [7] and 0.1 ng/mL in [8].

For the origin of these results see patent US7759375B2, “Epothilones C, D, E, and F, preparation and compositions” (priority 1996, dated 2010).
